Measurements reported in patent publication US20130096119A1, “Isoquinolin-3-Ylurea Derivatives” (priority 2010, published 2013).
Converted amounts (≈) assume the structure as drawn.

Tested on: S. pneumoniae ATCC 49619
Assay: Minimal inhibitory concentration (MIC) by microdilution method (CLSI M7-A7)
Type: cell-based, Streptococcus pneumoniae
Details: Streptococcus pneumoniae, ATCC49619, cation-adjusted Mueller-Hinton Broth supplemented with 3% (v/v) lysed horse blood
How it was run: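 Broth microdilution per CLSI M7-A7 in cation-adjusted Mueller-Hinton broth, supplemented with 3% (v/v) lysed horse blood for S. pneumoniae; MIC reported in mg/l.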

| SMILES | MIC [µg/mL] |
| --- | --- |
| CCNC(=O)Nc1cc2cc(-c3cccc4cnccc34)cc(C)c2cn1 [Example 104, 1-ethyl-3-(8′-methyl-[5,6′]biisoquinolinyl-3′-yl)-urea] | 8 (≈ 22.4 µM) |
| CCNC(=O)Nc1cc2c(CNC)ccc(Nc3cccc(C(=O)O)c3)c2cn1 [Example 272, 3-{[3-(3-ethyl-ureido)-5-[(methylamino)methyl]-isoquinolin-8-yl]amino}-benzoic acid] | 8 (≈ 20.3 µM) |
| CCNC(=O)Nc1cc2c(-c3ccccc3)cccc2cn1 [Example 43, 1-ethyl-3-(5-phenyl-isoquinolin-3-yl)-urea] | 8 (≈ 27.5 µM) |
| CCNC(=O)Nc1cc2c(-c3cccc4[nH]ccc34)ccc(C)c2cn1 [Example 69, 1-ethyl-3-[5-(1H-indol-4-yl)-8-methyl-isoquinolin-3-yl]-urea] | 16 (≈ 46.5 µM) |
| CCNC(=O)Nc1cc2cccc(Nc3ccn4ccnc4c3)c2cn1 [Example 150, 1-ethyl-3-[8-(imidazo[1,2-a]pyridin-7-ylamino)-isoquinolin-3-yl]-urea] | 4 (≈ 11.5 µM) |
| CCNC(=O)Nc1cc2c(CN3CCOCC3)ccc(Nc3cccc(OC)n3)c2cn1 [Example 275, 1-ethyl-3-{8-[(6-methoxy-pyridin-2-yl)amino]-5-(morpholin-4-ylmethyl)-isoquinolin-3-yl}-urea] | 4 (≈ 9.16 µM) |
| CCNC(=O)Nc1cc2cc(-c3cccnc3Cl)cc(C)c2cn1 [Example 82, 1-[6-(2-chloro-pyridin-3-yl)-8-methyl-isoquinolin-3-yl]-3-ethyl-urea] | 8 (≈ 23.5 µM) |
| CCNC(=O)Nc1cc2cc(-c3ccccc3C(=O)N(C)C)cc(C)c2cn1 [Example 23, 2-[3-(3-ethyl-ureido)-8-methyl-isoquinolin-6-yl]-N,N-dimethyl-benzamide] | 8 (≈ 21.3 µM) |
| CCNC(=O)Nc1cc2c(F)ccc(-c3ccc(C(=O)O)cc3)c2cn1 [Example 74, 4-[3-(3-ethyl-ureido)-5-fluoro-isoquinolin-8-yl]-benzoic acid] | 2 (≈ 5.66 µM) |
| CCNC(=O)Nc1cc2c(-c3ccc(C(=O)O)cc3)cccc2cn1 [Example 124, 4-[3-(3-ethyl-ureido)-isoquinolin-5-yl]-benzoic acid] | 4 (≈ 11.9 µM) |
| CCNC(=O)Nc1cc2cc(-c3ccncc3F)cc(C)c2cn1 [Example 97, 1-ethyl-3-[6-(3-fluoro-pyridin-4-yl)-8-methyl-isoquinolin-3-yl]-urea] | 2 (≈ 6.17 µM) |
| CCNC(=O)Nc1cc2cccc(Nc3ncccn3)c2cn1 [Example 152, 1-ethyl-3-[8-(pyrimidin-2-ylamino)-isoquinolin-3-yl]-urea] | 4 (≈ 13 µM) |
| CCNC(=O)Nc1cc2c(F)ccc(NCc3ccccc3)c2cn1 [Example 56, 1-(8-benzylamino-5-fluoro-isoquinolin-3-yl)-3-ethyl-urea] | 8 (≈ 23.6 µM) |
| CCNC(=O)Nc1cc2cc(NCc3cccc(Cn4cncn4)c3)cc(C)c2cn1 [Example 188, 1-{6-[(3-((1H-1,2,4-triazol-1-yl)methyl)benzyl)amino]-8-methylisoquinolin-3-yl}-3-ethylurea] | 8 (≈ 19.3 µM) |
| CCNC(=O)Nc1cc2c(F)c(-c3cccnc3)cc(C)c2cn1 [Example 47, 1-ethyl-3-(5-fluoro-8-methyl-6-pyridin-3-yl-isoquinolin-3-yl)-urea] | 2 (≈ 6.17 µM) |
| CCNC(=O)Nc1cc2cc(NCc3ccncc3)cc(C)c2cn1.Cl [Example 122, 1-ethyl-3-{8-methyl-6-[(pyridin-4-ylmethyl)-amino]-isoquinolin-3-yl}-urea hydrochloride] | 8 |
| CCNC(=O)Nc1cc2c(-c3ccncn3)ccc(C)c2cn1 [Example 278, 1-ethyl-3-(8-methyl-5-pyrimidin-4-yl-isoquinolin-3-yl)-urea] | 2 (≈ 6.51 µM) |
| CCNC(=O)Nc1cc2cccc(Nc3cncc(OC)c3)c2cn1 [Example 177, 1-ethyl-3-[8-(5-methoxy-pyridin-3-ylamino)-isoquinolin-3-yl]-urea] | 2 (≈ 5.93 µM) |

Further lines, results first:

| MIC [µg/mL] | SMILES |
| --- | --- |
| 0.5 (≈ 1.3 µM) | CCNC(=O)Nc1cc2cc(-c3cccc(S(N)(=O)=O)c3)cc(C)c2cn1 [Example 22, 3-[3-(3-ethyl-ureido)-8-methyl-isoquinolin-6-yl]-benzenesulfonamide] |
| 2 (≈ 4.65 µM) | CCNC(=O)Nc1cc2c(F)c(NCc3ccccc3)cc(Nc3cccnc3)c2cn1 [Example 240, 1-[6-benzylamino-5-fluoro-8-(pyridin-3-ylamino)-isoquinolin-3-yl]-3-ethyl-urea] |
| 0.5 (≈ 1.56 µM) | CCNC(=O)Nc1cc2cc(-c3cccc(O)c3)cc(C)c2cn1 [Example 20, 1-ethyl-3-[6-(3-hydroxy-phenyl)-8-methyl-isoquinolin-3-yl]-urea] |
| 2 (≈ 5.49 µM) | CCNC(=O)Nc1cc2cccc(Nc3ccc(C(=O)O)c(C)c3)c2cn1 [Example 267, 4-[3-(3-ethyl-ureido)-isoquinolin-8-ylamino]-2-methyl-benzoic acid] |
| 1 (≈ 3.26 µM) | CCNC(=O)Nc1cc2cc(-c3ccncc3)cc(C)c2cn1 [Example 21, 1-ethyl-3-(8-methyl-6-pyridin-4-yl-isoquinolin-3-yl)-urea] |
| 1 (≈ 3.25 µM) | CCNC(=O)Nc1cc2cccc(Nc3cccnc3)c2cn1 [Example 145, 1-ethyl-3-[8-(pyridin-3-ylamino)-isoquinolin-3-yl]-urea] |
| 2 | CCNC(=O)Nc1cc2cccc(Nc3ccc(C(N)=O)cn3)c2cn1.Cl [Example 156, 6-[3-(3-ethyl-ureido)-isoquinolin-8-ylamino]-nicotinamide hydrochloride] |
| 1 (≈ 3.11 µM) | CCNC(=O)Nc1cc2cccc(CNc3cccnc3)c2cn1 [Example 190, 1-ethyl-3-[8-(pyridin-3-ylaminomethyl)-isoquinolin-3-yl]-urea] |
| 1 (≈ 2.74 µM) | CCNC(=O)Nc1cc2cccc(Nc3ccc(C)c(C(=O)O)c3)c2cn1 [Example 265, 5-[3-(3-ethyl-ureido)-isoquinolin-8-ylamino]-2-methyl-benzoic acid] |
| 2 (≈ 6.24 µM) | CCNC(=O)Nc1cc2c(-c3cncc(C)c3)ccc(C)c2cn1 [Example 10, 1-ethyl-3-[8-methyl-5-(5-methyl-pyridin-3-yl)-isoquinolin-3-yl]-urea] |
| 0.125 (≈ 0.302 µM) | CCNC(=O)Nc1cc2c(-c3ccnc(OC)c3)ccc(Nc3cccnc3)c2cn1 [Example 225, 1-ethyl-3-[5-(2-methoxy-pyridin-4-yl)-8-(pyridin-3-ylamino)-isoquinolin-3-yl]urea] |
| 0.5 (≈ 1.5 µM) | CCNC(=O)Nc1cc2cc(-c3cccc(CN)c3)cc(C)c2cn1 [Example 26, 1-[6-(3-(aminomethyl)-phenyl)-8-methyl-isoquinolin-3-yl]-3-ethyl-urea] |
| 1 | CCNC(=O)Nc1cc2cccc(Nc3cccc(C(N)=O)c3)c2cn1.Cl [Example 254, 3-[3-(3-ethyl-ureido)-isoquinolin-8-ylamino]-benzamide hydrochloride] |
| 0.125 (≈ 0.325 µM) | CCNC(=O)Nc1cc2c(-c3ccncc3)ccc(Nc3cccnc3)c2cn1 [Example 227, 1-ethyl-3-[5-pyridin-4-yl-8-(pyridin-3-ylamino)-isoquinolin-3-yl]-urea] |
| 0.5 (≈ 1.1 µM) | CCNC(=O)Nc1cc2c(-c3ccc(CO)cc3)ccc(Nc3cccc(C(=O)O)c3)c2cn1 [Example 249, 3-[3-(3-ethyl-ureido)-5-(4-hydroxymethyl-phenyl)-isoquinolin-8-ylamino]-benzoic acid] |
| 0.06 (≈ 0.153 µM) | CCNC(=O)Nc1cc2cc(NC(=O)c3cccc(N(C)C)c3)cc(C)c2cn1 [Example 118, 3-dimethylamino-N-[3-(3-ethyl-ureido)-8-methyl-isoquinolin-6-yl]-benzamide] |
